Test results published in patent US6833150B1, “Spray -dried bacteriocin powder with anti-microbial activity” (Teagasc, The Agriculture and Food Development Authority, priority 2001, dated 2004).

Columns and labels:
[1] = test system: L. lactis subsp lactis HP; test: Bacteriocin activity by agar well diffusion assay; type: cell-based, Lactococcus lactis; details: for Bacteriocin activity: 10% reconstituted demineralized whey powder; for Lacticin 3147 activity: overnight incubation at 30° C.
Protocol: Bacteriocin activity was determined by the agar well diffusion assay as described by Parente and Hill (15). Molten agar was seeded with an indicator strain and dispensed into petri dishes. Wells of approximately 4.6 mm in diameter were bored in the agar and a 50 μl volume of a two fold serial dilution of a bacteriocin preparation was dispensed into each well. Bacteriocin solution was prepared by centrifuging the culture and heat treating the supernatant at 70° C. for 10 minutes prior to carrying out the dilution series. The plates were then incubated at either 30° C. or 37° C., depending on the indicator strain used. Bacteriocin activity was calculated as the inverse of the last dilution that gave a definite zone of clearance after overnight incubation. Activity units (AU) were expressed per milliliter (1/dilution, ×20).
(§1) Activity of both lacticin 3147 preparations was determined by the agar well diffusion assay as described by Parente and Hill (15). Molten agar was seeded with the indicator strain L. lactis subsp. lactis HP and dispensed into petri dishes. Wells of approximately 6.0 mm in diameter were bored in the agar and a 50 μl volume of a two fold serial dilution of a bacteriocin preparation was dispensed into each well. The plates were then incubated at 30° C. Bacteriocin activity was calculated as the inverse of the last dilution that gave a definite zone of clearance after overnight incubation. Activity units (AU) were expressed per milliliter (1/dilution, ×20). Activity may also be expressed as zone diameter (mm), where the diameter of the first zone (neat, undiluted sample) of the dilution series is recorded.

Staph. aureus ATCC6538 = test: High pressure and lacticin 3147 inactivation in milk (10% RSM); type: cell-based, Staphylococcus aureus
Protocol: For the inactivation of Staph. aureus ATCC6538 a liquid preparation of lacticin 3147 was prepared using hydrophobic adsorption chromatography. For studies on inactivation of L. innocua DPC1770 a food grade powdered preparation of lacticin 3147 was manufactured as described above with the following modification; a 1% demineralised whey powder solution was fermented with L. lactis subsp. lactis DPC3147 under pH controlled conditions of pH 6.0 for 18 hours.
Staph. aureus ATCC6538 cells were resuspended in 10% RSM and aliquoted into sterile 700 μl PCR eppendorfs prior to placing in sterile stomacher bags (Seward Ltd., London, UK). Ten millilitre volumes of L. innocua DPC1770 cells were resuspended in 20% reconstituted demineralised whey powder aliquoted into sterile stomacher bags. Samples were individually vacuum sealed prior to placing in the pressure vessel (Stansted Fluid Power Ltd., Stansted, England). The vessel consisted of a stainless-steel cylinder (37 mm diameter×300 mm height) filled with a 15% (v/v) caster oil in ethanol solution which acts as the hydrostatic pressurisation medium. Samples were treated for 30 min at 25° C. in the pressure range 150 to 600 MPa, in addition to a control sample being held at atmospheric pressure (0.1 MPa). […] The chamber temperature was determined by means of a thermoregulating system which circulated to maintain the chamber temperature.

L. lactis HP = test: Effect of high pressure on lacticin 3147 activity (well diffusion assay); type: cell-based, Lactococcus lactis; details: pressures greater than 400 MPa
Protocol: as §1
Pressurised and non-pressurised solutions of lacticin 3147 were heat treated at 80° C. for 10 minutes prior to carrying out activity determination by the well diffusion assay using L. lactis HP as an indicator strain.

[2] = test system: Gram-positive organisms, including Listeria, Clostridium spp., Enterococcus, Staphylococcus and Streptococcus; details: cited from earlier work

lacticin 3147
Bacteriocin activity ([1]; constant pH 6.0, 30° C.): 5120 AU/ml | Bacteriocin activity ([1]; constant pH 7.0, 30° C.): 5120 AU/ml | Bacteriocin activity ([1]; no pH control, 30° C.): 640 AU/ml | Bacteriocin activity ([1]; pH held constant at pH 6.5, 30° C.): 10,240 AU/ml | Effect of pasteurisation on bacteriocin activity ([1]; 72° C. for 15 sec): no effect | Bacteriocin activity during manufacture ([1]; after evaporation at 60° C. from 10% to 40% total solids): 40,960 AU/ml | Activity of the concentrate following overnight crystallisation ([1]; cooled from 32° C. at 1° C. per hour overnight): remained stable | Bacteriocin activity during manufacture ([1]; following the pH controlled 170 L fermentation (pH 6.5, 10% total solids)): 10,240 AU/ml | Lacticin 3147 activity ([1]; growth medium 10% reconstituted demineralised whey powder): 1,280 AU/ml | Lacticin 3147 activity ([1]; growth medium 10% reconstituted demineralised whey powder, listed as Lacticin 3147): 1280 AU/ml | Lacticin 3147 activity ([1]; growth medium 10% reconstituted skimmed milk powder): 1,280 AU/ml | Lacticin 3147 activity ([1]; growth medium 10% reconstituted skimmed milk powder, listed as Lacticin 3147): 1280 AU/ml | Lacticin 3147 activity ([1]; growth medium Cheddar cheese whey): 2,560 AU/ml | Lacticin 3147 activity ([1]; growth medium Cheddar cheese whey, listed as Lacticin 3147): 2560 AU/ml | Lacticin 3147 activity ([1]; growth medium LM17): 2,560 AU/ml | Lacticin 3147 activity ([1]; growth medium LM17, listed as Lacticin 3147): 2560 AU/ml | Lacticin 3147 activity ([1]; growth medium TY broth): 640 AU/ml | Lacticin 3147 activity ([1]; growth medium whey protein concentrate (WPC35)): 320 AU/ml | Lacticin 3147 activity ([1]; growth medium whole milk): 2,560 AU/ml | Lacticin 3147 activity ([1]; growth medium whole milk, listed as Lacticin 3147): 2560 AU/ml | Lacticin 3147 activity expressed as AU/g of dry matter throughout manufacture ([1]; remained constant through pasteurisation, evaporation, crystallisation, spray drying): 102,400 AU/g | logs of kill (Staph. aureus ATCC6538; combination of 250 MPa and lacticin 3147, 30 min at 25° C.): more than 6 logs | log reduction (Staph. aureus ATCC6538; concentrated lacticin 3147 from culture supernatant alone): 1 log | change in bacteriocin activity after pressure treatment (L. lactis HP): doubling of activity | inhibitory spectrum [2]: inhibitory to a wide range of Gram-positive organisms
